Here are results for 18 compounds from PubChem BioAssay (NCI).

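Step 1: Grow cells in 96-well plates. Step 2: Expose to compound for 48 hours at 5 concentrations. Step 3: Interpolate endpoints linearly; if unreached, use highest concentration. TGI: concentration producing complete growth inhibition.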

The first assay has as its system TK-10 renal. Nature of the assay: inhibition of tumour cell growth, NCI panel, 48 h.
In turn, `Cc1nc2cc(C(F)(F)F)ccc2[nH]c1=O` yielded a TGI of over 100 µM.
Same read-out and setting: for `CC1=CC=CC(C)(C)CC1(O[Si](C)(C)C)C(F)(F)F` (configuration not stated) the value was over 100 µM.
Same read-out and setting: for `CN(C)c1ccc(/C(Br)=C2\OC(=O)c3ccccc32)cc1` the value was over 100 µM; for `CN1C(=O)CN(NC(=O)C2=C(O)c3ccc(Br)cc3S(=O)(=O)N2)C1=S`, over 100 µM.
Same read-out and setting: the figure for `O=C1CC(c2ccc([N+](=O)[O-])cc2)C2(C(=O)NC(=S)NC2=O)C(c2ccc([N+](=O)[O-])cc2)C1` (configuration not stated) is 46.7 µM.
For the compound `O=C1OC[C@@H]2Cc3c([nH]c4ccccc34)[C@@H](c3ccc(O)cc3)N12`, the TGI is over 100 µM.
As to `Nc1ncnc2c1ncn2C(=O)NC12CC3CC(CC(C3)C1)C2`, the TGI was over 100 µM.
Same read-out and setting: the figure for `CC1=C2c3ccccc3N(C(=O)/C=C/C(=O)O)[C@H]2[C@H]2C(=O)OC(=O)[C@H]2C1` is over 10 µM; for `CN1CCN(C(=S)N(C)C(=O)c2ccc(Cl)cc2)CC1` it is over 100 µM; for `CCOP(=O)(OCC)/C(F)=C/c1ccccc1` it is over 100 µM.
Same read-out and setting: for `CC(C)(CO)N1C(=O)c2ccccc2C1(O)c1ccc(Cl)cc1` (configuration not stated) the value was over 100 µM.
Regarding `Cc1cccc(N(CCC#N)S(=O)(=O)c2ccccc2)c1`, the TGI is over 100 µM.
The compound `c1ccc2c(c1)CCCN1CCc3ccccc3C21` (configuration not stated) registered a TGI of over 100 µM.
Still for that read-out and setting: for `CN1CN(c2ccccc2)C2(CCN(CCCC3(c4cccs4)OCCO3)CC2)C1=O` the value was over 100 µM; for `Cc1cc(O)cc(O)c1N=Nc1ccc([N+](=O)[O-])cc1`, over 100 µM.
As for `CCOC(=O)c1c(SCCN2CCCC2)n(-c2ccccc2)c(=S)n(-c2ccccc2)c1=O`, the TGI was 3.06 µM.
Same read-out and setting: for `Cc1nc2ccc([N+](=O)[O-])cc2c(=O)n1C(=S)Nc1cccc(Cl)c1` the value was 67.5 µM; for `CCOC(=O)c1c(N)n(-c2ccccc2)c(=S)n(-c2ccccc2)c1=O`, over 100 µM.

Another assay has as its system HCC-2998 colon. In words: inhibition of tumour cell growth, NCI panel, 48 h.
On to `Cc1nc2cc(C(F)(F)F)ccc2[nH]c1=O`, for which the TGI is over 100 µM.
Turning to `CC1=CC=CC(C)(C)CC1(O[Si](C)(C)C)C(F)(F)F` (configuration not stated), the TGI was over 100 µM.
Same read-out and setting: the figure for `CN(C)c1ccc(/C(Br)=C2\OC(=O)c3ccccc32)cc1` is over 100 µM.
Compound `CN1C(=O)CN(NC(=O)C2=C(O)c3ccc(Br)cc3S(=O)(=O)N2)C1=S` registered a TGI of over 100 µM.
Same read-out and setting: for `O=C1CC(c2ccc([N+](=O)[O-])cc2)C2(C(=O)NC(=S)NC2=O)C(c2ccc([N+](=O)[O-])cc2)C1` (configuration not stated) the value was 49.8 µM.
With `O=C1OC[C@@H]2Cc3c([nH]c4ccccc34)[C@@H](c3ccc(O)cc3)N12`, the TGI is over 96.7 µM.
On the same count and under the same terms, the figure for `Nc1ncnc2c1ncn2C(=O)NC12CC3CC(CC(C3)C1)C2` is over 100 µM; for `CC1=C2c3ccccc3N(C(=O)/C=C/C(=O)O)[C@H]2[C@H]2C(=O)OC(=O)[C@H]2C1` it is over 10 µM.
The same measure, in the same setting: for `CN1CCN(C(=S)N(C)C(=O)c2ccc(Cl)cc2)CC1` the value was over 100 µM; for `CCOP(=O)(OCC)/C(F)=C/c1ccccc1`, over 100 µM; for `CC(C)(CO)N1C(=O)c2ccccc2C1(O)c1ccc(Cl)cc1` (configuration not stated), over 100 µM.
Same read-out and setting: for `Cc1cccc(N(CCC#N)S(=O)(=O)c2ccccc2)c1` the value was over 100 µM; for `c1ccc2c(c1)CCCN1CCc3ccccc3C21` (configuration not stated), over 100 µM.
`CN1CN(c2ccccc2)C2(CCN(CCCC3(c4cccs4)OCCO3)CC2)C1=O`: the TGI is over 100 µM.
On the same count and under the same terms, the figure for `Cc1cc(O)cc(O)c1N=Nc1ccc([N+](=O)[O-])cc1` is 49 µM; for `CCOC(=O)c1c(SCCN2CCCC2)n(-c2ccccc2)c(=S)n(-c2ccccc2)c1=O` it is 3.53 µM; for `Cc1nc2ccc([N+](=O)[O-])cc2c(=O)n1C(=S)Nc1cccc(Cl)c1` it is 26 µM.
On the same count and under the same terms, the figure for `CCOC(=O)c1c(N)n(-c2ccccc2)c(=S)n(-c2ccccc2)c1=O` is over 100 µM.

The next assay concerns KM12 colon. Nature of the assay: inhibition of tumour cell growth, NCI panel, 48 h.
Compound `Cc1nc2cc(C(F)(F)F)ccc2[nH]c1=O` showed a TGI of over 100 µM.
On the same count and under the same terms, for `CC1=CC=CC(C)(C)CC1(O[Si](C)(C)C)C(F)(F)F` (configuration not stated) the value was over 100 µM; for `CN(C)c1ccc(/C(Br)=C2\OC(=O)c3ccccc32)cc1`, over 100 µM; for `CN1C(=O)CN(NC(=O)C2=C(O)c3ccc(Br)cc3S(=O)(=O)N2)C1=S`, over 100 µM.
The same measure, in the same setting: the figure for `O=C1CC(c2ccc([N+](=O)[O-])cc2)C2(C(=O)NC(=S)NC2=O)C(c2ccc([N+](=O)[O-])cc2)C1` (configuration not stated) is 36.3 µM; for `O=C1OC[C@@H]2Cc3c([nH]c4ccccc34)[C@@H](c3ccc(O)cc3)N12` it is 53.1 µM.
`Nc1ncnc2c1ncn2C(=O)NC12CC3CC(CC(C3)C1)C2` yielded a TGI of over 100 µM.
Still for that read-out and setting: for `CC1=C2c3ccccc3N(C(=O)/C=C/C(=O)O)[C@H]2[C@H]2C(=O)OC(=O)[C@H]2C1` the value was over 10 µM; for `CN1CCN(C(=S)N(C)C(=O)c2ccc(Cl)cc2)CC1`, over 100 µM.
Still for that read-out and setting: the figure for `CCOP(=O)(OCC)/C(F)=C/c1ccccc1` is over 100 µM; for `CC(C)(CO)N1C(=O)c2ccccc2C1(O)c1ccc(Cl)cc1` (configuration not stated) it is over 100 µM.
Same read-out and setting: the figure for `Cc1cccc(N(CCC#N)S(=O)(=O)c2ccccc2)c1` is over 100 µM; for `c1ccc2c(c1)CCCN1CCc3ccccc3C21` (configuration not stated) it is over 100 µM; for `CN1CN(c2ccccc2)C2(CCN(CCCC3(c4cccs4)OCCO3)CC2)C1=O` it is over 100 µM.
For `Cc1cc(O)cc(O)c1N=Nc1ccc([N+](=O)[O-])cc1`, the TGI was determined as 63.1 µM.
The compound `CCOC(=O)c1c(SCCN2CCCC2)n(-c2ccccc2)c(=S)n(-c2ccccc2)c1=O` gave a TGI of 29.8 µM.
